Results reported in a compilation of properties of binary mixtures (doi:10.1016/j.fluid.2015.05.023).

Experiment: xn = mol fraction of the nth substance listed
Conditions: 100 kPa

CCCCCCCCCn1cc[n+](C)c1.O=S(=O)([N-]S(=O)(=O)C(F)(F)F)C(F)(F)F + O
x2 = 0.1736
Conditions	viscosity [mPa·s]
303.15 K	57.66
313.15 K	39.1
328.15 K	22.64
333.15 K	19.7
338.15 K	16.81
343.15 K	14.67
348.15 K	12.89
353.15 K	11.68

CC[n+]1ccn(C)c1.O=S(=O)([N-]S(=O)(=O)C(F)(F)F)C(F)(F)F + O
x2 = 0.298
Conditions	viscosity [mPa·s]
298.15 K	18.97
308.15 K	14.06
318.15 K	10.83
323.15 K	9.63
328.15 K	8.615
338.15 K	7.02
343.15 K	6.382
348.15 K	5.832
353.15 K	5.35
358.15 K	4.926
363.15 K	4.549

CCCCn1cc[n+](CCCC)c1.O=S(=O)([N-]S(=O)(=O)C(F)(F)F)C(F)(F)F + O
x2 = 0.1843
Conditions	viscosity [mPa·s]
298.15 K	48.47
303.15 K	39.12
313.15 K	26.74
318.15 K	22.52
323.15 K	19.19
328.15 K	16.51
333.15 K	14.32
338.15 K	12.53
343.15 K	11.04
348.15 K	9.78
353.15 K	8.73

CCCCCCCCCCCn1cc[n+](C)c1.O=S(=O)([N-]S(=O)(=O)C(F)(F)F)C(F)(F)F + O
x2 = 0.1567
Conditions	viscosity [mPa·s]
298.15 K	96.4
303.15 K	75.7
308.15 K	60.46
313.15 K	49.36
318.15 K	40.26
323.15 K	33.49
328.15 K	28.17
333.15 K	24.19
343.15 K	17.77
348.15 K	15.5
353.15 K	13.94
358.15 K	12.05
363.15 K	10.72

CCCn1cc[n+](CCC)c1.O=S(=O)([N-]S(=O)(=O)C(F)(F)F)C(F)(F)F + O
x2 = 0.2232
Conditions	viscosity [mPa·s]
298.15 K	35.66
308.15 K	24.31
318.15 K	17.47
323.15 K	15.05
328.15 K	13.09
338.15 K	10.15
343.15 K	9.03
353.15 K	7.29
358.15 K	6.6

CCCCCCC[n+]1ccn(C)c1.O=S(=O)([N-]S(=O)(=O)C(F)(F)F)C(F)(F)F + O
x2 = 0.1971
Conditions	viscosity [mPa·s]
298.15 K	52.98
303.15 K	42.58
313.15 K	28.95
328.15 K	17.77
333.15 K	15.4
338.15 K	13.45
343.15 K	11.85
348.15 K	10.51
353.15 K	9.36
363.15 K	7.58

CCCCCn1cc[n+](CCCCC)c1.O=S(=O)([N-]S(=O)(=O)C(F)(F)F)C(F)(F)F + O
x2 = 0.1575
Conditions	viscosity [mPa·s]
298.15 K	66.87
303.15 K	53.1
308.15 K	42.91
318.15 K	29.21
323.15 K	24.56
328.15 K	20.86
333.15 K	17.88
343.15 K	13.46
348.15 K	11.83
353.15 K	10.46
363.15 K	8.34

Cn1cc[n+](C)c1.O=S(=O)([N-]S(=O)(=O)C(F)(F)F)C(F)(F)F + O
x2 = 0.3548
Conditions	viscosity [mPa·s]
298.15 K	18.59
303.15 K	15.87
308.15 K	13.73
313.15 K	11.99
318.15 K	10.57
323.15 K	9.39
328.15 K	8.39
333.15 K	7.55
338.15 K	6.84
343.15 K	6.22
348.15 K	5.69
353.15 K	5.23
358.15 K	4.82
363.15 K	4.46
